Laboratory results as given in US7968572B2, “Nitrogen-containing heterocyclic compound and pharmaceutical application thereof” (Ono Pharmaceuticals Co., Ltd., priority 2005, dated 2011).

What was measured:
[1] = Evaluation of artificial lipid membrane binding using a Biacore S51 system; conditions: for Binding Level (RU): compound 50 μM, DOPA liposomes on Sensor Chip L1, 37° C., PBS/5% DMSO (pH 7.4 or pH 6.0); for Judgment: phospholipidosis inducing activity judged from artificial lipid membrane binding
Protocol: Evaluation of Artificial Lipid Membrane Binding using a Biacore S51 (Registered Trademark) System
Using an aspirator, 10 mM of 1,2-dioleoyl-sn-glycero-3-phosphate monosodium salt (hereinafter abbreviated to DOPA) chloroform solution was evaporated to be dryness, and 0.6 mL of PBS/5% dimethyl sulfoxide (hereinafter abbreviated to DMSO) was added thereto. After carrying out thorough suspension by vortex, freezing and thawing were repeated for 5 times. Liposomes were prepared using a liposome preparation device (manufactured by Avestin Inc.) and two syringes and diluted to be 0.5 mM with PBS/5% DMSO just before the immobilization.
Each compound having a final concentration in PBS/5% DMSO of 50 μM was prepared by adding 38 μL of 1× PBS to 2 μL of 10 mM DMSO solution and further adding 360 μL of 1× PBS/5% DMSO and measured.
All of the following analyses were carried out using the Biacore S51 (registered trademark) system, and the measuring conditions were set up by Biacore S51 Control Software.
The measuring temperature was set to be 37° C., and PBS/5% DMSO (pH 7.4 or pH 6.0) was used as the buffer. Series S Sensor Chip L1 was used as the sensor chip. DOPA was immobilized on one of the measuring spots on the sensor surface, and the central spot was used as the reference.
Immobilization of the liposomes was carried out for about 3 minutes at a flow rate of 10 μL/minute, and then each compound was added thereto at a flow rate of 30 μL/minute to measure the interaction. The measuring conditions are as shown in the following.
Assay buffer: PBS/5% DMSO (pH 7.4 or pH 6.0)
Measuring temperature: 37° C.
Sensor chip: Series S Sensor Chip L1
Flow rate: 10 μL/minute at the time of liposome immobilization, 30 μL/minute at the time of interaction measurement
Regeneration: 20 mM CHAPS (3-[(3-cholamidopropyl)dimethylammonio]-1-propanesulfonate), an isopropanol/50 mM aqueous solution of sodium hydroxide=40/60 (volume ratio) mixed solution (60 seconds)
The data treatment was carried out in accordance with the method of Abdiche et al. (Analytical Biochemistry, 328, 233-243 (2004)) using Biacore S51 Evaluation Software.
After correcting infinitesimal error of the concentration of DMSO contained in the sample solution, the value of binding response (RU) obtained by subtracting the value of reference was divided by the sample molecular weight. Additionally, since the thus obtained value is proportional to the capturing amount of liposome, it was divided by the capturing amount at the time of the cycling and multiplied by 10^6 to be used as the correction value (correction value=1000000×RU (compound to be tested)/molecular weight (compound to be tested) RU (liposome)).
By adding propranolol, amiodarone, desipramine, imipramine and procaine as controls, it was confirmed that variation of the binding response is within about 10 to 15%.
Compounds having a binding response value after correction of 100 or more were judged positive.

[2] = tested on: TNF-α production induced by lipopolysaccharide (LPS) in rats; experiment: Rat cytokine-production model; type: in vivo; conditions: male SD rat, oral 0.3 mg/kg, LPS 10 μg/kg intravenously after 8 hours, plasma TNF-α ninety minutes after LPS; read-out: Inhibition rate (%) (Dose of compound: 0.3 mg/kg)
Protocol: Rat Cytokine-Production Model
The in vivo effect of the compound of the present invention was studied on TNF-α production induced by lipopolysaccharide (LPS) in rats.
A vehicle containing the compound of the present invention was orally administered to male SD rat (Charles River Japan, Inc.), and after 8 hours, lipopolysaccharide (LPS, 055:B5, Difco) was intravenously administered at the dose of 10 μg/kg (5 animals/group). Only a vehicle was orally administered to a control group (5 animals). Ninety minutes after the LPS treatment, heparinized blood collection was performed via the abdominal vena cava under anesthesia with ether, and blood plasma was obtained by centrifugation (12,000 rpm, 3 minutes, 4° C.). The obtained blood plasma sample was stored at −80° C. until it was used. TNF-α in the blood plasma was measured using an ELISA kit from R&D System (#RTA00).
The inhibitory activity of the compound of the present invention against TNF-α production was calculated as an inhibition rate (%) according to the following equation: Inhibition rate (%)={(AC−AX)/AC}×100
wherein AC is a measured value in case where no test compound was administered under LPS induction, and
AX is a measured value in case where a test compound was administered under LPS induction.

[3] = tested on: TNF-α production stimulated by lipopolysaccharide (LPS) in THP-1; experiment: Inhibitory activity against TNF-α production using human cell lines (LPS-stimulated THP-1); type: cell-based; conditions: 1.5 h, THP-1 cells, LPS stimulation, 90 minutes at 37° C., TNF-α by ELISA
Protocol: Inhibitory Activity against TNF-α Production using Human Cell Lines
Using THP-1 which is a human monocytic cell line, the inhibitory effect of the compound of the present invention against TNF-α production stimulated by lipopolysaccharide (LPS) was studied.
Each 50 μL of lipopolysaccharide (LPS; 055:B5, Difco) prepared to a concentration of 40 ng/mL using RPMI-1640 medium containing 10% fetal calf serum (hereinafter abbreviated to RPMI-1640) and RPMI-1640 containing the compound of the present invention was added to a 96-well plate for cell culture. 100 μL of the cell suspension of THP-1 (Dainippon Pharmaceutical Co., Ltd, #06-202) prepared to a cell density of 2×10^6 cells/mL using RPMI-1640 was added and cultured for 90 minutes at 37° C. in an incubator (5% CO2, 95% air). After completion of the reaction, the culture medium supernatant was recovered and the amount of produced TNF-α was measured using an ELISA kit (Invitrogen, #850090192).
The inhibitory activity against TNF-α production, which is the effect of the compound of the present invention, was calculated as an inhibition rate (%) by the following equation: Inhibition rate (%)={(AC−AX)/(AC−AB)}×100
wherein AB is a measured value without LPS induction;
AC is a measured value with LPS induction in the absence of a test compound; and
AX is a measured value with LPS induction in the presence of a test compound.
Inhibition rate of compounds with each concentration was calculated, and a value indicating 50% inhibition (IC50) was determined from the inhibition curve.

Structure (SMILES) | Binding Level (RU) [1] [RU] | IC50 [3] [nM] | Judgment [1] | inhibition at 0.3 mg/kg [2] [%]
CC(C)(O)c1nc(-c2ccc(=O)n(-c3c(F)cccc3F)c2)c(-c2ccc(F)cc2F)o1 [Example 7 (21), 1-(2,6-difluorophenyl)-5-[5-(2,4-difluorophenyl)-2-(1-hydroxy-1-methylethyl)-1,3-oxazol-4-yl]-2(1H)-pyridinone] | 18.3 | 1.7 | Negative | 85
O=c1ccc(-c2nc(C(O)(CO)CO)oc2-c2ccc(F)cc2F)cn1-c1c(F)cccc1F [Example 7 (39), 1-(2,6-difluorophenyl)-5-{5-(2,4-difluorophenyl)-2-[1,2-dihydroxy-1-(hydroxymethyl)ethyl]-1,3-oxazol-4-yl}-2(1H)-pyridinone] | 11.1 | 1.8 | Negative | 64
C[C@@](O)(CO)c1nc(-c2ccc(=O)n(-c3c(F)cccc3F)c2)c(-c2ccc(F)cc2F)o1 [Example 167 (1), 1-(2,6-difluorophenyl)-5-{5-(2,4-difluorophenyl)-2-[(1R)-1,2-dihydroxy-1-methylethyl]-1,3-oxazol-4-yl}-2(1H)-pyridinone] | 19.6 | 0.8 | Negative | 73
C[C@](O)(CO)c1nc(-c2ccc(=O)n(-c3c(F)cccc3F)c2)c(-c2ccc(F)cc2F)o1 [Example 167 (2), 1-(2,6-difluorophenyl)-5-{5-(2,4-difluorophenyl)-2-[(1S)-1,2-dihydroxy-1-methylethyl]-1,3-oxazol-4-yl}-2(1H)-pyridinone] | 22.2 | 1.1 | Negative | 64
C[C@@](O)(CO)c1nc(-c2ccc(F)cc2F)c(-c2ccc(=O)n(-c3c(F)cccc3F)c2)o1 [Example 211, 1-(2,6-difluorophenyl)-5-{4-(2,4-difluorophenyl)-2-[(1R)-1,2-dihydroxy-1-methylethyl]-1,3-oxazol-5-yl}-2(1H)-pyridinone] | 11.1 | 0.6 | Negative | 85
CC(C)(O)Cc1nc(-c2ccc(F)cc2F)c(-c2ccc(=O)n(-c3c(F)cccc3F)c2)o1 [Example 220, 1-(2,6-difluorophenyl)-5-[4-(2,4-difluorophenyl)-2-(2-hydroxy-2-methylpropyl)-1,3-oxazol-5-yl]-2(1H)-pyridinone] | 15.5 | 1.4 | Negative | 88
O=c1ccc(-c2oc(C(O)(CO)CO)nc2-c2ccc(F)cc2F)cn1-c1c(F)cccc1F [Example 223, 1-(2,6-difluorophenyl)-5-{4-(2,4-difluorophenyl)-2-[1,2-dihydroxy-1-(hydroxymethyl)ethyl]-1,3-oxazol-5-yl}-2(1H)-pyridinone] | 8.7 | 2.1 | Negative | 72
CC(C)(O)[C@@H](O)c1nc(-c2ccc(=O)n(-c3c(F)cccc3F)c2)c(-c2ccc(F)cc2F)o1 [Example 227 (1), 1-(2,6-difluorophenyl)-5-{5-(2,4-difluorophenyl)-2-[(1R)-1,2-dihydroxy-2-methylpropyl]-1,3-oxazol-4-yl}-2(1H)-pyridinone] | 21.0 | 0.7 | Negative | 88

The remaining molecules from weak to strong by IC50 [3], led by results:

Binding Level (RU) [1] [RU] | IC50 [3] [nM] | Structure (SMILES) | Judgment [1] | inhibition at 0.3 mg/kg [2] [%]
22.5 | 1.7 | CC(C)(O)[C@H](O)c1nc(-c2ccc(=O)n(-c3c(F)cccc3F)c2)c(-c2ccc(F)cc2F)o1 [Example 227, 1-(2,6-difluorophenyl)-5-{5-(2,4-difluorophenyl)-2-[(1S)-1,2-dihydroxy-2-methylpropyl]-1,3-oxazol-4-yl}-2(1H)-pyridinone] | Negative | 65
14.7 | 0.9 | CC(C)(O)[C@H](O)c1nc(-c2ccc(F)cc2F)c(-c2ccc(=O)n(-c3c(F)cccc3F)c2)o1 [Example 206, 1-(2,6-difluorophenyl)-5-{4-(2,4-difluorophenyl)-2-[(1S)-1,2-dihydroxy-2-methylpropyl]-1,3-oxazol-5-yl}-2(1H)-pyridinone] | Negative | 79
12.8 | 0.6 | CC(C)(O)[C@@H](O)c1nc(-c2ccc(F)cc2F)c(-c2ccc(=O)n(-c3c(F)cccc3F)c2)o1 [Example 207, 1-(2,6-difluorophenyl)-5-{4-(2,4-difluorophenyl)-2-[(1R)-1,2-dihydroxy-2-methylpropyl]-1,3-oxazol-5-yl}-2(1H)-pyridinone] | Negative | 94
